Data reported in ChEMBL document CHEMBL5723584 (2023).

What was measured:
[1] = target: Cyclin-G-associated kinase (Homo sapiens, UniProt O14976); assay: Promega NanoBRET (GAK)
[2] = target: Serine/threonine-protein kinase 10 (Homo sapiens) (UniProt O94804); assay: activity of LOK(h) at 1.0 µM in the Eurofins Kinase panel; conditions: Compound concentration 1.0 uM
[3] = target: Insulin-like growth factor 1 receptor (Homo sapiens) (UniProt P08069); assay: activity of IGF-1R(h), activated at 1.0 µM in the Eurofins Kinase panel; conditions: Compound concentration 1.0 uM
[4] = target: Serine/threonine-protein kinase NIM1 (Homo sapiens) (UniProt Q8IY84); assay: activity of NIM1(h) at 1.0 µM in the Eurofins Kinase panel; conditions: Compound concentration 1.0 uM
[5] = target: CDK4/Cyclin D3 (Homo sapiens) (UniProt P11802+P30281); assay: activity of CDK4/cyclinD3(h) at 1.0 µM in the Eurofins Kinase panel; assay type: protein-complex assay; conditions: Compound concentration 1.0 uM
[6] = target: Calcium/calmodulin-dependent protein kinase type II subunit beta (Homo sapiens) (UniProt Q13554); assay: activity of CaMKIIbeta(h) at 1.0 µM in the Eurofins Kinase panel; conditions: Compound concentration 1.0 uM
[7] = target: Casein kinase I isoform alpha (Homo sapiens) (UniProt P48729); assay: activity of CK1alpha(h) at 1.0 µM in the Eurofins Kinase panel; conditions: Compound concentration 1.0 uM
[8] = target: Serine/threonine-protein kinase pim-3 (Homo sapiens) (UniProt Q86V86); assay: activity of Pim-3(h) at 1.0 µM in the Eurofins Kinase panel; conditions: Compound concentration 1.0 uM
[9] = target: Serine/threonine-protein kinase mTOR (Homo sapiens) (UniProt P42345); assay: activity of mTOR(h) at 1.0 µM in the Eurofins Kinase panel; conditions: Compound concentration 1.0 uM
[10] = target: Fibroblast growth factor receptor 3 (Homo sapiens) (UniProt P22607); assay: activity of FGFR3(h) at 1.0 µM in the Eurofins Kinase panel; conditions: Compound concentration 1.0 uM
[11] = target: Tyrosine-protein kinase Tec (Homo sapiens) (UniProt P42680); assay: activity of Tec(h) activated at 1.0 µM in the Eurofins Kinase panel; conditions: Compound concentration 1.0 uM
[12] = target: Serine/threonine-protein kinase Nek9 (Homo sapiens) (UniProt Q8TD19); assay: activity of NEK9(h) at 1.0 µM in the Eurofins Kinase panel; conditions: Compound concentration 1.0 uM
[13] = target: Serine/threonine-protein kinase DCLK2 (Homo sapiens) (UniProt Q8N568); assay: activity of DCAMKL2(h) at 1.0 µM in the Eurofins Kinase panel; conditions: Compound concentration 1.0 uM
[14] = target: Protein kinase C delta type (Homo sapiens) (UniProt Q05655); assay: activity of PKCdelta(h) at 1.0 µM in the Eurofins Kinase panel; conditions: Compound concentration 1.0 uM
[15] = target: Serine/threonine-protein kinase VRK1 (Homo sapiens) (UniProt Q99986); assay: activity of VRK1(h) at 1.0 µM in the Eurofins Kinase panel; conditions: Compound concentration 1.0 uM
[16] = target: Calcium/calmodulin-dependent protein kinase type 1G (Homo sapiens) (UniProt Q96NX5); assay: activity of CaMKIgamma(h) at 1.0 µM in the Eurofins Kinase panel; conditions: Compound concentration 1.0 uM
[17] = target: Serine/threonine-protein kinase TAO2 (Homo sapiens) (UniProt Q9UL54); assay: activity of TAO2(h) at 1.0 µM in the Eurofins Kinase panel; conditions: Compound concentration 1.0 uM
[18] = target: Serine/threonine-protein kinase ICK (Homo sapiens) (UniProt Q9UPZ9); assay: activity of ICK(h) at 1.0 µM in the Eurofins Kinase panel; conditions: Compound concentration 1.0 uM
[19] = target: Cyclin-dependent kinase 2/cyclin A (Homo sapiens) (UniProt P24941+P20248+P78396); assay: activity of CDK2/cyclinA(h) at 1.0 µM in the Eurofins Kinase panel; assay type: protein-complex assay; conditions: Compound concentration 1.0 uM
[20] = target: Glycogen synthase kinase-3 beta (Homo sapiens) (UniProt P49841); assay: activity of GSK3beta(h) at 1.0 µM in the Eurofins Kinase panel; conditions: Compound concentration 1.0 uM
[21] = target: Serine/threonine-protein kinase ULK1 (Homo sapiens) (UniProt O75385); assay: activity of ULK1(h) at 1.0 µM in the Eurofins Kinase panel; conditions: Compound concentration 1.0 uM
[22] = target: Ephrin type-A receptor 5 (Homo sapiens) (UniProt P54756); assay: activity of EphA5(h) at 1.0 µM in the Eurofins Kinase panel; conditions: Compound concentration 1.0 uM
[23] = target: Tyrosine-protein kinase SYK (Homo sapiens) (UniProt P43405); assay: activity of Syk(h) at 1.0 µM in the Eurofins Kinase panel; conditions: Compound concentration 1.0 uM
[24] = target: Phosphatidylinositol 4,5-bisphosphate 3-kinase catalytic subunit gamma isoform (Homo sapiens) (UniProt P48736); assay: activity of PI3 Kinase (p120gamma)(h) at 1.0 µM in the Eurofins Kinase panel; conditions: Compound concentration 1.0 uM
[25] = target: Epithelial discoidin domain-containing receptor 1 (Homo sapiens) (UniProt Q08345); assay: activity of DDR1(h) at 1.0 µM in the Eurofins Kinase panel; conditions: Compound concentration 1.0 uM
[26] = target: Serine/threonine-protein kinase STK11 (Homo sapiens) (UniProt Q15831); assay: activity of LKB1(h) at 1.0 µM in the Eurofins Kinase panel; conditions: Compound concentration 1.0 uM
[27] = target: RAC-beta serine/threonine-protein kinase (Homo sapiens) (UniProt P31751); assay: activity of PKBbeta(h) at 1.0 µM in the Eurofins Kinase panel; conditions: Compound concentration 1.0 uM
[28] = target: Fibroblast growth factor receptor 1 (Homo sapiens) (UniProt P11362); assay: activity of FGFR1(h) at 1.0 µM in the Eurofins Kinase panel; conditions: Compound concentration 1.0 uM
[29] = target: Serine/threonine-protein kinase 26 (Homo sapiens) (UniProt Q9P289); assay: activity of MST4(h) at 1.0 µM in the Eurofins Kinase panel; conditions: Compound concentration 1.0 uM
[30] = target: Ribosomal protein S6 kinase alpha-6 (Homo sapiens) (UniProt Q9UK32); assay: activity of Rsk4(h) at 1.0 µM in the Eurofins Kinase panel; conditions: Compound concentration 1.0 uM
[31] = target: Transient receptor potential cation channel subfamily M member 7 (Homo sapiens) (UniProt Q96QT4); assay: activity of ChaK1(h) at 1.0 µM in the Eurofins Kinase panel; conditions: Compound concentration 1.0 uM
[32] = target: Cyclin-Y/Cyclin-dependent kinase 16 (Homo sapiens) (UniProt Q00536+Q8ND76); assay: activity of CDK16/cyclinY(h) at 1.0 µM in the Eurofins Kinase panel; assay type: protein-complex assay; conditions: Compound concentration 1.0 uM
[33] = target: Ribosomal protein S6 kinase alpha-1 (Homo sapiens) (UniProt Q15418); assay: activity of Rsk1(h) at 1.0 µM in the Eurofins Kinase panel; conditions: Compound concentration 1.0 uM
[34] = target: Serine/threonine-protein kinase PLK3 (Homo sapiens) (UniProt Q9H4B4); assay: activity of Plk3(h) at 1.0 µM in the Eurofins Kinase panel; conditions: Compound concentration 1.0 uM
[35] = target: Bone morphogenetic protein receptor type-2 (Homo sapiens) (UniProt Q13873); assay: activity of BMPR2(h) at 1.0 µM in the Eurofins Kinase panel; conditions: Compound concentration 1.0 uM
[36] = target: Serine/threonine-protein kinase TBK1 (Homo sapiens) (UniProt Q9UHD2); assay: activity of TBK1(h) at 1.0 µM in the Eurofins Kinase panel; conditions: Compound concentration 1.0 uM
[37] = target: Cyclin-dependent kinase 5/CDK5 activator 1 (Homo sapiens) (UniProt Q00535+Q15078); assay: activity of CDK5/p35(h) at 1.0 µM in the Eurofins Kinase panel; assay type: protein-complex assay; conditions: Compound concentration 1.0 uM
[38] = target: Vascular endothelial growth factor receptor 2 (Homo sapiens) (UniProt P35968); assay: activity of KDR(h) at 1.0 µM in the Eurofins Kinase panel; conditions: Compound concentration 1.0 uM
[39] = target: cAMP-dependent protein kinase catalytic subunit PRKX (Homo sapiens) (UniProt P51817); assay: activity of PrKX(h) at 1.0 µM in the Eurofins Kinase panel; conditions: Compound concentration 1.0 uM

RAC-beta serine/threonine-protein kinase (Homo sapiens), sequence (P31751 whole entry): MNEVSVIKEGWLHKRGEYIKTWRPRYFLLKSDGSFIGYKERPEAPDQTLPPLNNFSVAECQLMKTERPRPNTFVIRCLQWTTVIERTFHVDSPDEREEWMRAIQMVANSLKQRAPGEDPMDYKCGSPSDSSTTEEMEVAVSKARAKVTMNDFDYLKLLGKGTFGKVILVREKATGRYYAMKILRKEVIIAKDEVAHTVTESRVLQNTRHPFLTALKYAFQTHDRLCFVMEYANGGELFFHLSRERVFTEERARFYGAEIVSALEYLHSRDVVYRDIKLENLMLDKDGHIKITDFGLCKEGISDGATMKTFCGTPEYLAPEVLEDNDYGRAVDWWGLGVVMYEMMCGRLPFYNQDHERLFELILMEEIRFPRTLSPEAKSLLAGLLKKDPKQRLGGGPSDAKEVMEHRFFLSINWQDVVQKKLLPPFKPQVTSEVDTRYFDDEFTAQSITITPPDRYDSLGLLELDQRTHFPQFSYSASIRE
Serine/threonine-protein kinase DCLK2 (Homo sapiens), sequence (Q8N568 whole entry): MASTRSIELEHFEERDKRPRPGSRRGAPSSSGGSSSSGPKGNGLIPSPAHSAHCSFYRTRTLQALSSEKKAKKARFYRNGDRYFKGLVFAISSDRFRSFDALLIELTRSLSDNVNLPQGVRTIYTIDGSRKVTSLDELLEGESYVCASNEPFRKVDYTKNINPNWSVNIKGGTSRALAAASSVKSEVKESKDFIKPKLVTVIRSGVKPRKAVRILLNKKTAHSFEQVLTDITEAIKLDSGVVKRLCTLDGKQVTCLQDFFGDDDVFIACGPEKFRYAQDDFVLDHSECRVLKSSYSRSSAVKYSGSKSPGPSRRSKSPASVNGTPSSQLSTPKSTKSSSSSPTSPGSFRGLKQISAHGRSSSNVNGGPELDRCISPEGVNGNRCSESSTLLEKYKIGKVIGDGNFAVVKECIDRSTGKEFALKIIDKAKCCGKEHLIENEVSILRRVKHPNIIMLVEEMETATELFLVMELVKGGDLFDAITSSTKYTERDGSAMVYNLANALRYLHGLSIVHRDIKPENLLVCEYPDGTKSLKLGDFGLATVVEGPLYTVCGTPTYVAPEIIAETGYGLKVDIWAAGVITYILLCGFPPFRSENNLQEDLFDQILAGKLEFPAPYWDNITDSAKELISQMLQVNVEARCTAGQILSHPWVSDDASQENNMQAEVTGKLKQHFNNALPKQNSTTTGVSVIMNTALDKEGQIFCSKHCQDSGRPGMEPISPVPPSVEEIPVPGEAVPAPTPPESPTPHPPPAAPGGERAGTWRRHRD
Casein kinase I isoform alpha (Homo sapiens), sequence (P48729 2-337 limits assumed): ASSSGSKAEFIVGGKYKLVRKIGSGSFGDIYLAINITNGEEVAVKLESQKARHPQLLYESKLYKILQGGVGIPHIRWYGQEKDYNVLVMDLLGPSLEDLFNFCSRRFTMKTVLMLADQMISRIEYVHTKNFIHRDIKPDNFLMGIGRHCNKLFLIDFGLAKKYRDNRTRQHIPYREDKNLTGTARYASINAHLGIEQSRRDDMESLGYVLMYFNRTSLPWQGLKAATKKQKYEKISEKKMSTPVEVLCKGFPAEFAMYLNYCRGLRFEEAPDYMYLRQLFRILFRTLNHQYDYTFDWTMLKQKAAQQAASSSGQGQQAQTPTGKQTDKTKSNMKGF
Protein kinase C delta type (Homo sapiens), sequence (Q05655 whole entry, looked up): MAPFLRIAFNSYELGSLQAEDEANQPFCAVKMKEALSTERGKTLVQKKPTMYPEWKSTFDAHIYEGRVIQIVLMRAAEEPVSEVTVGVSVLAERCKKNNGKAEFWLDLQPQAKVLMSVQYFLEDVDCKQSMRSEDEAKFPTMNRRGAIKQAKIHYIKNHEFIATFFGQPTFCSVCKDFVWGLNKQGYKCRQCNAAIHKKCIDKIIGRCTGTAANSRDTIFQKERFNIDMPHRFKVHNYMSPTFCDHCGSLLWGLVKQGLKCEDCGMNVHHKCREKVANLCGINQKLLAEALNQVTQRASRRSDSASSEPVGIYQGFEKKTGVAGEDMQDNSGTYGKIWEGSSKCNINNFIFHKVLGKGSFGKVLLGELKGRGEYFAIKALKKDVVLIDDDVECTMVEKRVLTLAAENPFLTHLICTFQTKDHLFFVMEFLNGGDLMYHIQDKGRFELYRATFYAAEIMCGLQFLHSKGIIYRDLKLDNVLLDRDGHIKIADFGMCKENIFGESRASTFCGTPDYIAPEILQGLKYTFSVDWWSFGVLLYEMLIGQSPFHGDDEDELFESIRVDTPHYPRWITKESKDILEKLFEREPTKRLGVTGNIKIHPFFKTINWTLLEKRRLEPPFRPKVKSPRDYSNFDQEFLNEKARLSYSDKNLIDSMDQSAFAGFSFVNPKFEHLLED
Fibroblast growth factor receptor 3 (Homo sapiens), sequence (P22607 23-806 limits assumed): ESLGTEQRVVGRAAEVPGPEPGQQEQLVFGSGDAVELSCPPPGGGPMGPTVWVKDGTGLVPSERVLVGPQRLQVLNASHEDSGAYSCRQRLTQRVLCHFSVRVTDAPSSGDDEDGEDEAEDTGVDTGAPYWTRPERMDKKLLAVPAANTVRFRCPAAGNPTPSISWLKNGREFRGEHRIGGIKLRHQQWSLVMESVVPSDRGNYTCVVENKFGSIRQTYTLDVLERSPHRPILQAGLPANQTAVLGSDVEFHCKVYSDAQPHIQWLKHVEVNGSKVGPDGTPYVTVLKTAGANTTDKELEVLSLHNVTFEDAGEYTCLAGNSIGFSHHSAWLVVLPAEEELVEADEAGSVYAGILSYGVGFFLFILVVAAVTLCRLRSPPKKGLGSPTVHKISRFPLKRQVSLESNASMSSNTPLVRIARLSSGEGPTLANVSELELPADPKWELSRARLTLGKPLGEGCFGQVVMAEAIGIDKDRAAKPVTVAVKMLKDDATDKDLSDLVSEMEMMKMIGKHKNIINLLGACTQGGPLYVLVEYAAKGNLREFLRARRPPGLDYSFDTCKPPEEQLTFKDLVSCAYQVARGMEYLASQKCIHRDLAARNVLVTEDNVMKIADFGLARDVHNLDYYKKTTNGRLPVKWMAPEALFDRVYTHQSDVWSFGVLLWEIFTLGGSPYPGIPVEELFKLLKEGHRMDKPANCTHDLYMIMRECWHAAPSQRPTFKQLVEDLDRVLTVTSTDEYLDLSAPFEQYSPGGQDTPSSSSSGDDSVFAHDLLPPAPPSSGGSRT
Serine/threonine-protein kinase TBK1 (Homo sapiens), sequence (Q9UHD2 whole entry): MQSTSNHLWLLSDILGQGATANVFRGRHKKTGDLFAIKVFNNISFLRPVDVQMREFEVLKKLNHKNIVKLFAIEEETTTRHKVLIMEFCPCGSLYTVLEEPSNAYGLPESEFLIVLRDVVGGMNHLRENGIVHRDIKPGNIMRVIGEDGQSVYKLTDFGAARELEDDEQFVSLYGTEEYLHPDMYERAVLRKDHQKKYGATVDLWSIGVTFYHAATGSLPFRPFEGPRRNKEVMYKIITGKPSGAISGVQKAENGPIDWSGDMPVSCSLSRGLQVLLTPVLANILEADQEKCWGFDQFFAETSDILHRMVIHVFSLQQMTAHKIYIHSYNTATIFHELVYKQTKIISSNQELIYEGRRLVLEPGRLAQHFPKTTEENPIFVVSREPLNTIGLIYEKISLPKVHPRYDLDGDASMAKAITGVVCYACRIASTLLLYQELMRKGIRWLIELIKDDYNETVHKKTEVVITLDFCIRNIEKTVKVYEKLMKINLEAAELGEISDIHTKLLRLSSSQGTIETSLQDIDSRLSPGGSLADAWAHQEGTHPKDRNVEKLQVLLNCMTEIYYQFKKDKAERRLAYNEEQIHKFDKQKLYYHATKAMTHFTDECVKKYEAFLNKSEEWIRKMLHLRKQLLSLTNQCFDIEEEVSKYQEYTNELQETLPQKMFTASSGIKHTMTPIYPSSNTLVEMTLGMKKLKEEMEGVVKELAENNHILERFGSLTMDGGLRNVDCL
Ribosomal protein S6 kinase alpha-6 (Homo sapiens), sequence (Q9UK32 whole entry): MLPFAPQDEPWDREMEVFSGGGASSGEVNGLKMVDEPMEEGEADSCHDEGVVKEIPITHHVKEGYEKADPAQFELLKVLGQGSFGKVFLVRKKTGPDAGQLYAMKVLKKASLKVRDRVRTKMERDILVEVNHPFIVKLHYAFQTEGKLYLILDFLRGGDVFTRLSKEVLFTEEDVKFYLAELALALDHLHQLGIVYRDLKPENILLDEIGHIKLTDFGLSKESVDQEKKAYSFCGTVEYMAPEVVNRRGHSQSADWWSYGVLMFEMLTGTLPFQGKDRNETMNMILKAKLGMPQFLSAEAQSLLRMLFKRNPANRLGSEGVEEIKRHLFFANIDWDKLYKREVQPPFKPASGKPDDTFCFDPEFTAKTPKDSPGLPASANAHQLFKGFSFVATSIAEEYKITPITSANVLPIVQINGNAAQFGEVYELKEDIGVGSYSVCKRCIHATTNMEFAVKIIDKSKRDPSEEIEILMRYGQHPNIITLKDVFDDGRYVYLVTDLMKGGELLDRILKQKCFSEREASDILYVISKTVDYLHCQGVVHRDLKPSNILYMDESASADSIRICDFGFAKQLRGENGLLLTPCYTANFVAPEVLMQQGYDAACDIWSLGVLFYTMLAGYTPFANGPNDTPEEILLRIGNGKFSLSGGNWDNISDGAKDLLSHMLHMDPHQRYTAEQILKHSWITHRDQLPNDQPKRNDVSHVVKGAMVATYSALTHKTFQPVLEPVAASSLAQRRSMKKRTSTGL
Serine/threonine-protein kinase 26 (Homo sapiens), sequence (Q9P289 2-416 limits assumed): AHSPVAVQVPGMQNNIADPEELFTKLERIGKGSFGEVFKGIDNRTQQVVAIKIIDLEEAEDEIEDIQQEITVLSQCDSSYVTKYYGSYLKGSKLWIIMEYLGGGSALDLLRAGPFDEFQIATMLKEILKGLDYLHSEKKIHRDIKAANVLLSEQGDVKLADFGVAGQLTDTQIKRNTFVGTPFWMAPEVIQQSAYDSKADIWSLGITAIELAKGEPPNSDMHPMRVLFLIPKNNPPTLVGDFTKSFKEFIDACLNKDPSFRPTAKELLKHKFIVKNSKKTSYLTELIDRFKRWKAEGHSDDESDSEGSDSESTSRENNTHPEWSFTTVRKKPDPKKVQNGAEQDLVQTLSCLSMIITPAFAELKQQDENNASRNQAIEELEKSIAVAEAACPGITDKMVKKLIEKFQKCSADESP

IC50 [1]: > 10 µM (not active) | activity [2]: 96% | activity [3]: 93% | activity [4]: 112% | activity [5]: 74% | activity [6]: 93% | activity [7]: 97% | activity [8]: 103% | activity [9]: 95% | activity [10]: 86% | activity [11]: 126% | activity [13]: 104% | activity [14]: 93% | activity [15]: 99% | activity [16]: 110% | activity [17]: 90% | activity [18]: 99% | activity [19]: 87% | activity [20]: 93% | activity [21]: 95% | activity [22]: 89% | activity [23]: 66% | activity [24]: 105% | activity [25]: 98% | activity [26]: 99% | activity [27]: 109% | activity [28]: 100% | activity [29]: 106% | activity [30]: 101% | activity [31]: 106% | activity [32]: 98% | activity [33]: 99% | activity [34]: 100% | activity [35]: 85% | activity [36]: 100% | activity [37]: 79% | activity [38]: 78% | activity [39]: 101%
SMILES: Cc1cc2c(-c3ccc(NC(=O)[C@H](N)CC(C)(C)C)cc3C)ccnc2[nH]1
activity [12]: 79%
